Assay results as given in PMC9569468 (International Journal of Molecular Sciences, 2022).
Like-named read-outs stand apart in the source and are kept apart here.

Key:
[1] = tested on: SARS-CoV-2 "NRC-03-nhCoV"; assay: microbe, parasite or virus in culture; assay type: cell-based
[2] = tested on: MERS-CoV "NRCE-HKU270"; assay: microbe, parasite or virus in culture; assay type: cell-based; settings: for IC50: Middle East respiratory syndrome-related coronavirus, Vero C1008, read-out: Antiviral Activities MERS-CoV IC50 (µM)
[3] = tested on: NRC-03-nhCoV in Vero-E6 cells; assay: microbe, parasite or virus in culture; assay type: cell-based, SARS-CoV-2; settings: Severe acute respiratory syndrome coronavirus 2, Vero C1008, read-out: Half maximal inhibitory concentration (IC50) against NRC-03-nhCoV
[4] = in vitro; settings: African green monkey
[5] = tested on: SARS-CoV-2; settings: read-out: IC50 of FDA-approved drugs applied in COVID-19 treatment protocols; cited from earlier work
[6] = Severe acute respiratory syndrome coronavirus 2, Vero C1008, read-out: Antiviral Activities SARS-CoV-2 IC50 (µM)
[7] = read-out: Antiviral Activities SARS-CoV-2 IC50

Compound `O=C1Nc2ccccc2[C@]12C[C@@H](S(=O)(=O)c1ccccc1)[C@H]1CSCN12` [Compound 4i, (3R,7’R,7a’R)-7’-(Phenylsulfonyl)-1’,6’,7’,7a’-tetrahydro-3’H-spiro[indoline-3,5’-pyrrolo [1,2-c]thiazole]-2-one] has an IC50 [1, 6] of 34 µM, an IC50 [2] of 11 µM and an IC50 [3] of 14.7 µM. The CC50 ([4]; Cytotoxicity (CC50, µM)) was 1990 µM.
In the case of `NC(=O)c1ncn([C@@H]2O[C@H](CO)[C@@H](O)[C@H]2O)n1` [Ribavirin], the IC50 [5] is given as 70 µM.
With `O=C1Nc2ccc(Cl)cc2[C@]12C[C@@H](S(=O)(=O)c1ccccc1)[C@H]1CSCN12` [Compound 4b, (3R,7’R,7a’R)-5-Chloro-7’-(phenylsulfonyl)-1’,6’,7’,7a’-tetrahydro-3’H-spiro[indoline-3,5’-pyrrolo [1,2-c]thiazole]-2-one] the “Antiviral Activities SARS-CoV-2 SI (selectivity index)” value [1] was 5.38, the IC50 [1, 6] was 194 µM and the “Antiviral Activities MERS-CoV SI (selectivity index)” value [2] was 9.95. For the same compound, the IC50 [2] was 105 µM, the melting point was 282 °C and the CC50 ([4]; Cytotoxicity (CC50, µM)) was 1040 µM.
For `COc1ccc2c(c1)[C@]1(C[C@@H](S(=O)(=O)c3ccccc3)[C@H]3CCCN31)C(=O)N2` [Compound 4h, (1’R,3R,7a’R)-5-Methoxy-1’-(phenylsulfonyl)-1’,2’,5’,6’,7’,7a’-hexahydrospiro[indoline-3,3’-pyrrolizin]-2-one], the “Antiviral Activities SARS-CoV-2 SI (selectivity index)” value [1] was 15.43, the IC50 [1, 6] was 37 µM and the “Antiviral Activities MERS-CoV SI (selectivity index)” value [2] was 38.06. The IC50 [2] was 15 µM, the melting point was 240 °C and the CC50 ([4]; Cytotoxicity (CC50, µM)) was 571 µM.
For `O=C1Nc2ccc([N+](=O)[O-])cc2[C@]12C[C@@H](S(=O)(=O)c1ccccc1)[C@H]1C[C@H](O)CN12` [Compound 4c, (1’R,3R,6’S,7a’R)-6’-Hydroxy-5-nitro-1’-(phenylsulfonyl)-1’,2’,5’,6’,7’,7a’-hexahydrospiro[indoline-3,3’-pyrrolizin]-2-one], the IC50 [1, 6] was 17 µM, the IC50 [1, 7] was 18 µM and the “Antiviral Activities MERS-CoV SI (selectivity index)” value [2] was 16.84. It also gave an IC50 [2] of 65 µM, an IC50 [3] of 8.79 µM and a CC50 ([4]; Cytotoxicity (CC50, µM)) of 1100 µM.
With `CN1C(=O)[C@@]2(C[C@@H](S(=O)(=O)c3ccccc3)[C@H]3CCCN32)c2ccccc21` [Compound 4k, (1’R,3R,7a’R)-1-Methyl-1’-(phenylsulfonyl)-1’,2’,5’,6’,7’,7a’-hexahydrospiro[indoline-3,3’-pyrrolizin]-2-one] the IC50 [1, 6] was 27 µM, the “Antiviral Activities MERS-CoV SI (selectivity index)” value [2] was 13.37 and the IC50 [2] was 66 µM. For the same compound, the IC50 [3] was 5.98 µM, the CC50 ([4]; Cytotoxicity (CC50, µM)) was 883 µM and the CC50 ([4]; Half maximal cytotoxic concentration (CC50)) was 882 µM.
With `O=C1Nc2ccc(Br)cc2[C@]12C[C@@H](S(=O)(=O)c1ccccc1)[C@H]1CCCN12` [Compound 4j, (1’R,3R,7a’R)-5-Bromo-1’-(phenylsulfonyl)-1’,2’,5’,6’,7’,7a’-hexahydrospiro[indoline-3,3’-pyrrolizin]-2-one] the “Antiviral Activities SARS-CoV-2 SI (selectivity index)” value [1] was 1.01, the IC50 [1, 6] was 197 µM and the “Antiviral Activities MERS-CoV SI (selectivity index)” value [2] was less than 1. It also gave an IC50 [2] of 376 µM, a melting point of 250 °C and a CC50 ([4]; Cytotoxicity (CC50, µM)) of 200 µM.
In the case of `CC[C@H]1OC(=O)[C@H](C)[C@@H](O[C@H]2C[C@@](C)(OC)[C@@H](O)[C@H](C)O2)[C@H](C)[C@@H](O[C@@H]2O[C@H](C)C[C@H](N(C)C)[C@H]2O)[C@](C)(O)C[C@@H](C)CN(C)[C@H](C)[C@@H](O)[C@]1(C)O` [Azithromycin], the IC50 [5] is listed as 2.12 µM.
With `O=C1Nc2ccc(Br)cc2[C@]12C[C@@H](S(=O)(=O)c1ccccc1)[C@H]1C[C@H](O)CN12` [Compound 4d, (1’R,3R,6’S,7a’R)-5-Bromo-6’-hydroxy-1’-(phenylsulfonyl)-1’,2’,5’,6’,7’,7a’-hexahydrospiro[indoline-3,3’-pyrrolizin]-2-one] the “Antiviral Activities SARS-CoV-2 SI (selectivity index)” value [1] was 8.58, the IC50 [1, 6] was 24 µM and the “Antiviral Activities MERS-CoV SI (selectivity index)” value [2] was 8.95. For the same compound, the IC50 [2] was 23 µM, the melting point was 220 °C and the CC50 ([4]; Cytotoxicity (CC50, µM)) was 206 µM.
In the case of `CC(C)c1nc(CN(C)C(=O)N[C@H](C(=O)N[C@@H](Cc2ccccc2)C[C@H](O)[C@H](Cc2ccccc2)NC(=O)OCc2cncs2)C(C)C)cs1` [Ritonavir], the IC50 [5] is given as no less than 100 µM.
With `O=C1Nc2ccccc2[C@]12C[C@@H](S(=O)(=O)c1ccccc1)[C@H]1CCCN12` [Compound 4a, (1’R,3R,7a’R)-1’-(Phenylsulfonyl)-1’,2’,5’,6’,7’,7a’-hexahydrospiro[indoline-3,3’-pyrrolizin]-2-one] the “Antiviral Activities SARS-CoV-2 SI (selectivity index)” value [1] was 11.24, the IC50 [1, 6] was 29 µM and the “Antiviral Activities MERS-CoV SI (selectivity index)” value [2] was 5.25. It also gave an IC50 [2] of 62 µM, a melting point of 298 °C and a CC50 ([4]; Cytotoxicity (CC50, µM)) of 326 µM.
For `O=C1Nc2ccc(Cl)cc2[C@]12C[C@@H](S(=O)(=O)c1ccccc1)[C@H]1CCCN12` [Compound 4g, (1’R,3R,7a’R)-5-Chloro-1’-(phenylsulfonyl)-1’,2’,5’,6’,7’,7a’-hexahydrospiro[indoline-3,3’-pyrrolizin]-2-one], the “Antiviral Activities SARS-CoV-2 SI (selectivity index)” value [1] was 1, the IC50 [1, 6] was 405 µM and the “Antiviral Activities MERS-CoV SI (selectivity index)” value [2] was 3.97. For the same compound, the IC50 [2] was 101 µM, the melting point was 254 °C and the CC50 ([4]; Cytotoxicity (CC50, µM)) was 405 µM.
`O=C1Nc2cc(Cl)ccc2[C@]12C[C@@H](S(=O)(=O)c1ccccc1)[C@H]1CSCN12` [Compound 4n, (3R,7’R,7a’R)-6-Chloro-7’-(phenylsulfonyl)-1’,6’,7’,7a’-tetrahydro-3’H-spiro[indoline-3,5’-pyrrolo [1,2-c]thiazole]-2-one] showed an IC50 [1, 6] of 667 µM, an IC50 [2] of 15 µM and a CC50 ([4]; Cytotoxicity (CC50, µM)) of 222 µM.
With `O=C1Nc2ccc([N+](=O)[O-])cc2[C@]12C[C@@H](S(=O)(=O)c1ccccc1)[C@H]1CSCN12` [Compound 4e, (3R,7’R,7a’R)-5-Nitro-7’-(phenylsulfonyl)-1’,6’,7’,7a’-tetrahydro-3’H-spiro[indoline-3,5’-pyrrolo [1,2-c]thiazole]-2-one] the “Antiviral Activities SARS-CoV-2 SI (selectivity index)” value [1] was 17, the IC50 [1, 6] was 18 µM and the IC50 [1, 7] was 17 µM. The “Antiviral Activities MERS-CoV SI (selectivity index)” value [2] was 3.90, the IC50 [2] was 74 µM and the melting point was 95 °C. The CC50 ([4]; Cytotoxicity (CC50, µM)) was 289 µM.
With `O=C1Nc2cc(Cl)ccc2[C@]12C[C@@H](S(=O)(=O)c1ccccc1)[C@H]1CCCN12` [Compound 4m] the “Antiviral Activities SARS-CoV-2 SI (selectivity index)” value [1] was less than 1, the IC50 [1, 6] was 305 µM and the “Antiviral Activities MERS-CoV SI (selectivity index)” value [2] was 1.17. It also gave an IC50 [2] of 191 µM and a CC50 ([4]; Cytotoxicity (CC50, µM)) of 225 µM.
With `CCC(CC)COC(=O)[C@H](C)N[P@](=O)(OC[C@H]1O[C@@](C#N)(c2ccc3c(N)ncnn23)[C@H](O)[C@@H]1O)Oc1ccccc1` [Remdesivir, reference compound] the “Antiviral Activities SARS-CoV-2 SI (selectivity index)” value [1] was 70.40, the IC50 [1, 6] was 6.72 µM and the “Antiviral Activities MERS-CoV SI (selectivity index)” value [2] was 172.66. For the same compound, the IC50 [2] was 2.74 µM, the IC50 [3] was 6.72 µM and the CC50 ([4]; Cytotoxicity (CC50, µM)) was 473 µM.
With `COc1ccc2c(c1)[C@]1(C[C@@H](S(=O)(=O)c3ccccc3)[C@H]3CSCN31)C(=O)N2` [Compound 4f, (3R,7’R,7a’R)-5-Methoxy-7’-(phenylsulfonyl)-1’,6’,7’,7a’-tetrahydro-3’H-spiro[indoline-3,5’-pyrrolo [1,2-c]thiazole]-2-one] the “Antiviral Activities SARS-CoV-2 SI (selectivity index)” value [1] was less than 1, the IC50 [1, 6] was 2250 µM and the “Antiviral Activities MERS-CoV SI (selectivity index)” value [2] was 3.92. For the same compound, the IC50 [2] was 88 µM, the melting point was 105 °C and the CC50 ([4]; Cytotoxicity (CC50, µM)) was 345 µM.
In the case of `O=C1N(CCBr)c2ccccc2[C@]12C[C@@H](S(=O)(=O)c1ccccc1)[C@H]1CCCN12` [Compound 4l, (1’R,3R,7a’R)-1-(2-Bromoethyl)-1’-(phenylsulfonyl)-1’,2’,5’,6’,7’,7a’-hexahydrospiro[indoline-3,3’-pyrrolizin]-2-one], the “Antiviral Activities SARS-CoV-2 SI (selectivity index)” value [1] is reported as 1.92, the IC50 [1, 6] is reported as 107 µM and the “Antiviral Activities MERS-CoV SI (selectivity index)” value [2] is reported as 1.41. For the same compound, the IC50 [2] was 146 µM, the melting point was 70 °C and the CC50 ([4]; Cytotoxicity (CC50, µM)) was 206 µM.
